Data as given in publication PMC9865396, “The Effect of the Particle Size Reduction on the Biorelevant Solubility and Dissolution of Poorly Soluble Drugs with Different Acid-Base Character” (Pharmaceutics, 2023).
Where a name gives a salt, the structure may show the parent alone.

Key:
[1] = particle size distribution by laser diffractometry (Mastersizer 2000); format: physicochemical
Experimental: For Laser Diffractometry, 0.1 mL of milled suspensions were dispersed in 100 mL of demineralized water at a mixing speed of 1500 rpm with Mastersizer Hydro 2000 SM small volume dispersion unit. The particle size of the samples was measured at 25 ± 1 °C using a Mastersizer 2000 (Malvern Instruments Ltd., Malvern, UK). Laser diffraction measures the angular distribution of light scattered by the diluted sample and detects particles from 0.1 to 3000 μm. General purpose measurement with enhanced sensitivity mode was utilized, which was also useful for sample characterizations containing irregularly shaped particles. Every sample was measured three times individually, and the mean values were reported to track the changing of the particle size and span values (width of particle size distributions).

[2] = pKa and ionization state (species distribution) at the pH of the media; format: physicochemical
[3] = ampholyte; cited from earlier work
[4] = equilibrium solubility by the saturation shake-flask (SSF) method in FaSSIF/FeSSIF blank and full media; conditions: blank buffers, 37 °C
Experimental: The equilibrium solubility of the samples was determined by the SSF method. The concentrations for the blank buffers were available at the manufacturer. FaSSIF full and FeSSIF full buffers were prepared from instant SIF powder added to the blank buffers and could be used for 48 h. For FaSSIF, a full 0.224 g of SIF powder was dissolved in 100 mL of blank phosphate buffer (pH = 6.5). After 2 h, a slightly opalesque solution was formed and it meant that it was ready for the measurement. For FeSSIF, a full 1.12 g of SIF powder was dissolved in 100 mL of blank acetate buffer (pH = 5.0) and was ready to use. The samples were added in excess to the aqueous buffer solutions to produce a suspension. To measure the original samples and the micronized forms in the presence of the excipients, the same 1 to 1 mass ratio was used as in the case of nanonized samples: a physical mixture was prepared from the API and the PVA or PVPK-25.
The prepared suspensions were vigorously stirred for 6 h at a controlled 37.0 ± 0.1 °C temperature followed by a sedimentation period of 18 h. […] The concentration of the saturated solutions was determined by UV spectroscopy using a Jasco V-550 UV/VIS spectrophotometer. The aliquots taken out from solubility experiments were diluted if necessary with the buffer used for the given solubility measurement, and the absorbance was measured at the λmax. […]

[5] = original and micronized compounds before solubility measurement, upper size limit for 10% of particles
[6] = original and micronized compounds before solubility measurement, upper size limit for 50% of particles
[7] = original and micronized compounds before solubility measurement, upper size limit for 90% of particles
[8] = solid phase at end of solubility measurement, pH = 5.0
[9] = solid phase at end of solubility measurement, pH = 6.5
[10] = pH = 5.0, calculated from protonation microconstants

SMILES | d = 0.1 [1, 5] [µm] | d = 0.5 [1, 6] [µm] | d = 0.9 [1, 7] [µm] | d = 0.1 [1, 8] [µm] | d = 0.5 [1, 8] [µm] | d = 0.9 [1, 8] [µm] | d = 0.1 [1, 9] [µm] | d = 0.5 [1, 9] [µm] | d = 0.9 [1, 9] [µm] | H2A (non-ionized form) ([2]; pH = 5.0) [%] | HA− (monoanionic form) ([2]; pH = 5.0) [%] | anionic form [2, 10] [%] | neutral form [2, 10] [%] | zwitterionic form [2, 10] [%] | anionic form ([2]; pH = 6.5, calculated from protonation microconstants) [%] | pKa1 [3] | pKa2 [3] | solubility in pH = 5.0 medium compared with pH = 6.5 medium [4] | molecules protonated ([2]; pH = 5.0) [%] | molecule in deprotonated state ([2]; pH = 6.5)
NS(=O)(=O)c1cc(C(=O)O)c(NCc2ccco2)cc1Cl [FUR original, furosemide] | 7.36 | 62.46 | 294.13 | 16.24 | 51.23 | 110.56 | 4.72 | 14.63 | 35.04 | 3.3 | 96.7 |  |  |  |  |  |  |  |  | 
O=C(O)c1cccnc1Nc1cccc(C(F)(F)F)c1 [NIF original, Niflumic acid] | 71.45 | 183.25 | 579.83 | 56.21 | 151.25 | 488.95 | 19.07 | 58.55 | 128.24 |  |  | 78.2 | 1.2 | 20.6 | 99.1 | 2.26 | 4.44 | approximately ten times lower |  | 
COc1ccc(Cc2nccc3cc(OC)c(OC)cc23)cc1OC [PAP original, papaverine hydrochloride] | 153.97 | 488.62 | 887.93 | 4.60 | 49.42 | 189.96 | 7.96 | 33.39 | 98.40 |  |  |  |  |  |  |  |  |  | 95.8 | approximately 50%
